Data as given in US20090221619A1, “NOVEL MATERIALS AND METHODS FOR THE PRODUCTION THEREOF” (SYNGENTA CROP PROTECTION, INC., priority 2005, published 2009).
≈ marks a conversion by molar mass, not a printed value. Where two headings read alike, the source gives them in different places.

Columns and labels:
Type in all cases: cell-based
[1] = test system: Aureobasidium pullulans; assay: MIC value generation: liquid culture assay on 24 well plates, solo ai; settings: A. pullulans; for EC95: concentration for 95% activity estimated from graph; for MIC: Aureobasidium pullulans, rates 0-100 mg ai/l, mean values of n = 5, read-out: MIC Minimal inhibition concentration
Procedure: (§1) Stachybotrys chartarum, and Aureobasidium pullulans were separately cultivated on PDA media to […] sporulation. Spore suspensions were produced for each fungi.
(§2) Test method used: liquid culture assay on 24 well plates.
(§3) For solo (i.e. single) ai testing the formulated fungicide (100 ul) was filled into the 24 well plates (8 different rates: 100-0.05 mg ai/l final volume as described above) and 100 ul distilled water was added. Afterwards 800 ul of 0.3% PDA media was added to the plate. The spore suspension of the specific fungi was added to this media in advance containing approx. 100.000 spores/ml. The 24 well plates were sealed and incubated at 24° C.
(§4) Dependent on the growth prosperities of each organisms, the evaluation was done after 3 to 6 days, when the surface of the check well was covered with mycelium. The evaluation was performed by assessing the growth of the fungi related to the check growth. The results are expressed as % activity relative to the check (values of 0-100% growth). Afterwards the results were converted in % growth inhibition. EC95 values and also MIC (minimal inhibition concentration) values were derived for each compound.
(§5) For each solo compound a graph was drawn of percentage inhibition against the concentration of the fungicide. From this graph the concentration of the fungicide required to achieve 95% activity was estimated. Also the concentration that gave the minimum inhibition concentration was derived as MIC value.

[2] = test system: Stachybotrys chartarum; assay: as above; settings: S. chartarum; for EC95: concentration for 95% activity estimated from graph; for MIC: Stachybotrys chartarum, rates 0-100 mg ai/l, mean values of n = 5, read-out: MIC Minimal inhibition concentration
Procedure: as §1, §2, §3, §4, §5

[3] = test system: Aureobasidium pullulans; assay: Synergy testing of 2 way mixtures, liquid culture on 24 well plates (Colby); settings: A. pullulans; for inhibition at 50 µg/mL: CDL 50 mg ai/l; for inhibition at 100 µg/mL: CDL 100 mg ai/l
Procedure: (§6) For synergism testing of the 2 way mixtures 100 ul of each fungicide were filled into the 24 well plates (8 different rates) and 800 ul of 0.3% PDA media containing the spore suspension was added (see above). Different ratios of the 2 fungicide rates were tested at the same time.
(§7) Stachybotrys chartarum and Aureobasidium pullulans were separately cultivated on PDA media to […] sporulation. Spore suspensions were produced for each fungi.
(§8) For the mixtures of different fungicides the synergism was calculated based on the Colby equation, which is described below: […]
(§9) The fungicidal action to be expected, We, for a given combination of two fungicides can be calculated as follows (see COLBY, S. R. “Calculating synergistic and antagonistic response of herbicide combinations”. Weeds 15, pages 20-22; 1967):
(§10) wherein: X=% activity in the case of treatment with the compound of formula I at rate x, in comparison with untreated control (=0%). Y=% activity in the case of treatment with a compound of formula II at rate y, in comparison with untreated control. We=expected activity (% activity in comparison with untreated control) after treatment with the compound of formula I and a compound of formula II at a rate of x+y kg of active ingredient.
(§11) If the activity actually observed is greater than the expected value We, there is a synergistic effect.
(§12) All rates below are expressed as mg ai/l (i.e. ppm).

[4] = test system: Stachybotrys chartarum; assay: as above; settings: S. chartarum
Procedure: as §6, §7, §8, §9, §10, §11, §12

[5] = CDL 12.5 mg ai/l, PPZ table, read-out: inh % (CDL alone)
[6] = CCZ table, read-out: inh % (CDL alone)
[7] = DFZ table, read-out: inh % (CDL alone)
[8] = PPZ table, read-out: inh % (CDL alone)
[9] = TBZ table, read-out: inh % (CDL alone)
[10] = PPZ 3.1 mg ai/l, read-out: inh % (PPZ alone)

In the case of `CC(C1CC1)C(O)(Cn1cncn1)c1ccc(Cl)cc1` (stereo not drawn) [CCZ, Cyproconazole], the EC95 [1] was 6.5 mg ai/l, the MIC [1] was 12.5 µg/mL (≈ 42.8 µM) and the EC95 [2] was >100 mg ai/l. For the same compound, the MIC [2] was > 100 µg/mL, the inhibition at 1.6 µg/mL ([3]; CCZ 1.6 mg ai/l, read-out: inh % (CCZ alone)) was 70% and the inhibition at 3.1 µg/mL ([3]; CCZ 3.1 mg ai/l, read-out: inh % (CCZ alone)) was 90%. The inhibition at 100 µg/mL ([4]; CCZ 100 mg ai/l, read-out: inh % (CCZ alone)) was 50%.

`Cc1cc(C2CC2)nc(Nc2ccccc2)n1` [CDL, Cyprodinil] was tested, and the EC95 [1] was >100 mg ai/l, the MIC [1] was > 100 µg/mL and the EC95 [2] was 46 mg ai/l. For the same compound, the MIC [2] was 50 µg/mL (≈ 222 µM), the inhibition at 0.8 µg/mL ([3]; CDL 0.8 mg ai/l, DFZ table, read-out: inh % (CDL alone)) was 0% and the inhibition at 1.6 µg/mL ([3]; CDL 1.6 mg ai/l, CCZ table, read-out: inh % (CDL alone)) was 10%. It also gave an inhibition at 1.6 µg/mL ([3]; CDL 1.6 mg ai/l, DFZ table, read-out: inh % (CDL alone)) of 10%, an inhibition at 1.6 µg/mL ([3]; CDL 1.6 mg ai/l, PPZ table, read-out: inh % (CDL alone)) of 10% and an inhibition at 1.6 µg/mL ([3]; CDL 1.6 mg ai/l, TBZ table, read-out: inh % (CDL alone)) of 10%. For the same compound, the inhibition at 3.1 µg/mL ([3]; CDL 3.1 mg ai/l, DFZ table, read-out: inh % (CDL alone)) was 10%, the inhibition at 3.1 µg/mL ([3]; CDL 3.1 mg ai/l, PPZ table, read-out: inh % (CDL alone)) was 10% and the inhibition at 3.1 µg/mL ([3]; CDL 3.1 mg ai/l, TBZ table, read-out: inh % (CDL alone)) was 10%. It also gave an inhibition at 12.5 µg/mL ([3]; CDL 12.5 mg ai/l, CCZ table, read-out: inh % (CDL alone)) of 30%, an inhibition at 12.5 µg/mL ([3]; CDL 12.5 mg ai/l, DFZ table, read-out: inh % (CDL alone)) of 30% and an inhibition at 12.5 µg/mL [3, 5] of 30%. It also gave an inhibition at 12.5 µg/mL ([3]; CDL 12.5 mg ai/l, TBZ table, read-out: inh % (CDL alone)) of 30%, an inhibition at 50 µg/mL [3, 6] of 30% and an inhibition at 50 µg/mL [3, 7] of 30%. For the same compound, the inhibition at 50 µg/mL [3, 8] was 30%, the inhibition at 50 µg/mL [3, 9] was 50% and the inhibition at 100 µg/mL [3, 6] was 30%. For the same compound, the inhibition at 100 µg/mL [3, 7] was 30%, the inhibition at 100 µg/mL [3, 8] was 30% and the inhibition at 100 µg/mL [3, 9] was 50%. It also gave an inhibition at 3.1 µg/mL ([4]; CDL 3.1 mg ai/l, CCZ table, read-out: inh % (CDL alone)) of 0% and an inhibition at 12.5 µg/mL [4, 5] of 70%.

For `CC1COC(Cn2cncn2)(c2ccc(Oc3ccc(Cl)cc3)cc2Cl)O1` (stereo not drawn) [DFZ, Difenoconazole], the EC95 [1] was 8 mg ai/l, the MIC [1] was 12.5 µg/mL (≈ 30.8 µM) and the EC95 [2] was 2.7 mg ai/l. It also gave an MIC [2] of 3.1 µg/mL (≈ 7.63 µM), an inhibition at 0.8 µg/mL ([3]; DFZ 0.8 mg ai/l, read-out: inh % (DFZ alone)) of 90% and an inhibition at 1.6 µg/mL ([3]; DFZ 1.6 mg ai/l, read-out: inh % (DFZ alone)) of 90%. For the same compound, the inhibition at 3.1 µg/mL ([3]; DFZ 3.1 mg ai/l, read-out: inh % (DFZ alone)) was 70%.

With `CCCC1COC(Cn2cncn2)(c2ccc(Cl)cc2Cl)O1` (stereo not drawn) [PPZ, Propiconazole] the EC95 [1] was 36 mg ai/l, the MIC [1] was 50 µg/mL (≈ 146 µM) and the EC95 [2] was >100 mg ai/l. The MIC [2] was > 100 µg/mL, the inhibition at 3.1 µg/mL [3, 10] was 70% and the inhibition at 12.5 µg/mL ([3]; PPZ 12.5 mg ai/l, read-out: inh % (PPZ alone)) was 70%. For the same compound, the inhibition at 0.2 µg/mL ([4]; PPZ 0.2 mg ai/l, read-out: inh % (PPZ alone)) was 0%, the inhibition at 1.6 µg/mL ([4]; PPZ 1.6 mg ai/l, read-out: inh % (PPZ alone)) was 0% and the inhibition at 3.1 µg/mL [4, 10] was 10%.

`c1ccc2[nH]c(-c3cscn3)nc2c1` [TBZ, Thiabendazole] was tested, and the EC95 [1] was 15 mg ai/l, the MIC [1] was 50 µg/mL (≈ 248 µM) and the EC95 [2] was 46 mg ai/l. The MIC [2] was 50 µg/mL (≈ 248 µM) and the inhibition at 12.5 µg/mL ([3]; TBZ 12.5 mg ai/l, read-out: inh % (TBZ alone)) was 90%.
